Test results published in ChEMBL document CHEMBL1140347, “Peptidyl vinyl ester derivatives: new class of selective inhibitors of proteasome trypsin-like activity” (J Med Chem, 2005).

Assays:
Proteasome [1] = test: Inhibition of chymotrypsin like activity of the proteasome purified from lymphoblastoid cell lines (in vitro); format: subcellular
[2] = Half-life in culture medium (RPMI) in the presence of 10% foetal calf serum by incubation at […]; format: ADME; details: cattle, culture medium (RPMI) with 10% foetal calf serum
Proteasome [3] = test: Inhibition of post-acidic-like (PGPH) activity of the proteasome purified from lymphoblastoid cell lines (in vitro)
Proteasome [4] = test: Inhibition of trypsin like activity of the proteasome purified from lymphoblastoid cell lines (in vitro); format: subcellular
[5] = Half-life in human plasma by incubation at […]; format: ADME, cell-free
Proteasome [6] = test: Inhibition of trypsin like activity of the proteasome in colon carcinoma cell lines HCT116; format: subcellular
Proteasome [7] = test: Inhibition of trypsin like activity of the proteasome in colon carcinoma cell lines COO115; format: subcellular

Compound | IC50 (Proteasome [1]) [nM] | half-life [2] [h] | IC50 (Proteasome [3]) [nM] | IC50 (Proteasome [4]) [nM] | half-life [5] [h] | IC50 (Proteasome [6]) [nM] | IC50 (Proteasome [7]) [nM]
CCOC(=O)/C=C/[C@H](CC(C)C)NC(=O)[C@H](CC(C)C)NC(=O)[C@H](CC(C)C)NC(=O)C1=CCCNC1 | 860 | > 6 | > 10000 | 210 | > 6 | – | –
CCOC(=O)/C=C/[C@H](CC(C)C)NC(=O)[C@H](CO)NC(=O)[C@@H](NC(=O)c1cccc(O)c1C)C(C)C | > 10000 | > 6 | > 10000 | 33 | > 6 | 33 | –
CCOC(=O)/C=C/[C@H](CC(C)C)NC(=O)[C@H](CO)NC(=O)[C@@H](NC(=O)C1=CCCN(C(=O)OC(C)(C)C)C1)C(C)C | > 10000 | > 6 | > 10000 | 110 | 2.57 | – | –
CCOC(=O)/C=C/[C@H](CC(C)C)NC(=O)[C@H](CC(C)C)NC(=O)[C@H](CC(C)C)NC(=O)OCc1ccccc1 | 2450 | > 6 | > 10000 | 280 | 4.87 | – | –
CCOC(=O)/C=C/[C@H](CC(C)C)NC(=O)[C@H](CC(C)C)NC(=O)[C@H](CC(C)C)NC(=O)C1=CCCN(C(=O)OC(C)(C)C)C1 | 4360 | > 6 | > 10000 | 190 | 3.3 | – | –
CCOC(=O)/C=C/[C@H](CC(C)C)NC(=O)[C@H](CO)NC(=O)[C@@H](NC(=O)OCc1ccccc1)C(C)C | > 10000 | > 6 | > 10000 | 71 | 3.97 | – | –
CCOC(=O)/C=C/[C@H](CC(C)C)NC(=O)[C@H](CC(C)C)NC(=O)[C@H](CC(C)C)NC(=O)c1cccc(O)c1C | 4210 | > 6 | > 10000 | 41 | > 6 | – | 41
CCOC(=O)/C=C/[C@H](CC(C)C)NC(=O)[C@H](CO)NC(=O)[C@@H](NC(=O)C1=CCCNC1)C(C)C | 6540 | > 6 | > 10000 | 380 | > 6 | – | –
